According to patent publication US20260001875A1, “AMINOPYRIMIDINYL DERIVATIVES FOR THE TREATMENT OF PARKINSON'S DISEASE” (UNIVERSITY OF DUNDEE, priority 2022, published 2026):
“Also recorded” adds a separate entry of the source.

What was measured:
LRRK2 = LRRK2 (Homo sapiens, UniProt Q5S007); experiment: LRRK2 degradation in PBMC; assay type: cell-based; parameters: endogenous in cells; host or cells: human peripheral blood mononuclear cells (PBMC)
Procedure: (§1) PBMC cells were separated from human blood following existing protocol (dx.doi.org/10.17504/protocols.io.bnhxmb7n) and pelleted by centrifugation at 1000 g for 2 min. The supernatant was discarded and the PBMC pellet was resuspended in PBS containing 2% FBS for washing. The suspension was centrifuged at 1000 g for 2 min again and the PBMC pellet was resuspended in RPMI-1640 (Gibco) media supplemented with 10% FBS. The cells were then seeded into 6-well plates and treated with testing compounds at indicated concentrations and time period. After treatment, the cells were collected into 2-ml Eppendorf tube and centrifuged at 500 g for 2 min to pellet the cells, the supernatant was discarded, and the pellet was resuspended in 1 ml PBS and centrifuged at 500 g for 2 min again. The PBMC pellet was lysed with 60 μL of lysis buffer containing 50 mM Tris-HCl, pH 7.5, 1% (v/v) Triton X-100, 1 mM EGTA, 1 mM sodium orthovanadate, 50 mM NaF, 0.1% (v/v) 2-mercaptoethanol, 10 mM 2-glycerophosphate, 5 mM sodium pyrophosphate, 0.1 μg/ml mycrocystin-LR (Enzo Life Sciences), 270 mM sucrose, 0.5 mM DIFP (Sigma, Cat #D0879) in addition to Complete EDTA-free protease inhibitor cocktail (Sigma-Aldrich Cat #11836170001). DIFP is highly toxic and must be prepared in a fume hood to a stock solution of 0.5 M in isopropanol. The lysed cells were then centrifuged at 1500 g for 15 min at 0° C. The supernatants were collected for analysis by quantitative immunoblotting. For long term storage, the supernatant was flash frozen and stored at −80° C. Protein concentrations of cell lysates were determined using Pierce™ BCA Protein Assay Kit (ThermoFisher).
(§2) Cell lysates containing a quarter of a volume of 4× NuPAGE LDS sample buffer (NP0007) supplemented with 5% β-mercaptoethanol, were heated at 95° C. for 5 minutes. 15 to 20 μg of samples were loaded onto pre-cast 4-12% Bis-Tris midi 20W or 26W gels (Thermofisher Scientific®, Cat #WG1402BOX or WG1403BOX) and resolved at 130 V for 2 hours with NuPAGE MOPS SDS running buffer (Thermofisher Scientific® Cat #NP0001-02). Proteins were electrophoretically transferred onto a 0.45 μm nitrocellulose membrane (GE Healthcare, Amersham Protran® Supported 0.45 mm NC) at 90 V for 90 min on ice in transfer buffer (48 mM Tris base and 39 mM glycine supplemented with 20% methanol). The transferred membrane was blocked with 5% (w/v) skim milk powder dissolved in tris-buffered saline with tween (TBS-T) (50 mM Tris base, 150 mM sodium chloride (NaCl), 0.1% (v/v) Tween-20) at room temperature for 1 hour. Membranes were washed three times with TBS-T and were incubated in primary antibody overnight at 4° C. Prior to secondary antibody incubation, membranes were washed three times for 15 minutes with TBS-T. The membranes were incubated with secondary antibody for 1 hour at room temperature, protected from light. Thereafter, the membranes were washed with TBS-T three times with a 15-minute incubation for each wash, and protein bands were acquired via near-infrared fluorescent detection using the Odyssey CLx imaging system and quantified using Image Studio software. Graphs were generated using Graphpad Prism version 8 software.
Monoclonal rabbit LRRK2 Ser935 (Cat #UDD2) was purified by MRC PPU Reagents and Services at the University of Dundee and was used at a final concentration of 1 μg/ml. Total LRRK2 (C-terminus) was from Antibodies Inc./Neuromab (Cat #75-253) and was diluted 1:1000. The MJFF monoclonal rabbit Rab10 pThr73, which was characterized previously (Lis et al., Biochem J. 2018 Jan. 2; 475(1):1-22.) was purchased from Abcam Inc. (ab230261) and diluted 1:1000. Mouse monoclonal alpha-tubulin (#3873) was purchased from Cell Signaling Technology and used at 1:1000. The mouse monoclonal anti-Rab10 total antibody was purchased from Nanotools (#0680-100/Rab10-605B11) and was used at a final concentration of 1 μg/ml. Mouse monoclonal Hif-1α was purchased from R&D Systems (Cat #MAB1536) and was diluted 1:1000.

Rab10 pThr73 = experiment: Rab10 Thr73 dephosphorylation in PBMC; assay type: cell-based, human; conditions: for EC50: Homo sapiens, PBMC
Procedure: as §1, §2
Monoclonal rabbit LRRK2 Ser935 (Cat #UDD2) was purified by MRC PPU Reagents and Services at the University of Dundee and was used at a final concentration of 1 μg/ml. Total LRRK2 (C-terminus) was from Antibodies Inc./Neuromab (Cat #75-253) and was diluted 1:1000. […]

LRRK2, sequence (Q5S007 whole entry): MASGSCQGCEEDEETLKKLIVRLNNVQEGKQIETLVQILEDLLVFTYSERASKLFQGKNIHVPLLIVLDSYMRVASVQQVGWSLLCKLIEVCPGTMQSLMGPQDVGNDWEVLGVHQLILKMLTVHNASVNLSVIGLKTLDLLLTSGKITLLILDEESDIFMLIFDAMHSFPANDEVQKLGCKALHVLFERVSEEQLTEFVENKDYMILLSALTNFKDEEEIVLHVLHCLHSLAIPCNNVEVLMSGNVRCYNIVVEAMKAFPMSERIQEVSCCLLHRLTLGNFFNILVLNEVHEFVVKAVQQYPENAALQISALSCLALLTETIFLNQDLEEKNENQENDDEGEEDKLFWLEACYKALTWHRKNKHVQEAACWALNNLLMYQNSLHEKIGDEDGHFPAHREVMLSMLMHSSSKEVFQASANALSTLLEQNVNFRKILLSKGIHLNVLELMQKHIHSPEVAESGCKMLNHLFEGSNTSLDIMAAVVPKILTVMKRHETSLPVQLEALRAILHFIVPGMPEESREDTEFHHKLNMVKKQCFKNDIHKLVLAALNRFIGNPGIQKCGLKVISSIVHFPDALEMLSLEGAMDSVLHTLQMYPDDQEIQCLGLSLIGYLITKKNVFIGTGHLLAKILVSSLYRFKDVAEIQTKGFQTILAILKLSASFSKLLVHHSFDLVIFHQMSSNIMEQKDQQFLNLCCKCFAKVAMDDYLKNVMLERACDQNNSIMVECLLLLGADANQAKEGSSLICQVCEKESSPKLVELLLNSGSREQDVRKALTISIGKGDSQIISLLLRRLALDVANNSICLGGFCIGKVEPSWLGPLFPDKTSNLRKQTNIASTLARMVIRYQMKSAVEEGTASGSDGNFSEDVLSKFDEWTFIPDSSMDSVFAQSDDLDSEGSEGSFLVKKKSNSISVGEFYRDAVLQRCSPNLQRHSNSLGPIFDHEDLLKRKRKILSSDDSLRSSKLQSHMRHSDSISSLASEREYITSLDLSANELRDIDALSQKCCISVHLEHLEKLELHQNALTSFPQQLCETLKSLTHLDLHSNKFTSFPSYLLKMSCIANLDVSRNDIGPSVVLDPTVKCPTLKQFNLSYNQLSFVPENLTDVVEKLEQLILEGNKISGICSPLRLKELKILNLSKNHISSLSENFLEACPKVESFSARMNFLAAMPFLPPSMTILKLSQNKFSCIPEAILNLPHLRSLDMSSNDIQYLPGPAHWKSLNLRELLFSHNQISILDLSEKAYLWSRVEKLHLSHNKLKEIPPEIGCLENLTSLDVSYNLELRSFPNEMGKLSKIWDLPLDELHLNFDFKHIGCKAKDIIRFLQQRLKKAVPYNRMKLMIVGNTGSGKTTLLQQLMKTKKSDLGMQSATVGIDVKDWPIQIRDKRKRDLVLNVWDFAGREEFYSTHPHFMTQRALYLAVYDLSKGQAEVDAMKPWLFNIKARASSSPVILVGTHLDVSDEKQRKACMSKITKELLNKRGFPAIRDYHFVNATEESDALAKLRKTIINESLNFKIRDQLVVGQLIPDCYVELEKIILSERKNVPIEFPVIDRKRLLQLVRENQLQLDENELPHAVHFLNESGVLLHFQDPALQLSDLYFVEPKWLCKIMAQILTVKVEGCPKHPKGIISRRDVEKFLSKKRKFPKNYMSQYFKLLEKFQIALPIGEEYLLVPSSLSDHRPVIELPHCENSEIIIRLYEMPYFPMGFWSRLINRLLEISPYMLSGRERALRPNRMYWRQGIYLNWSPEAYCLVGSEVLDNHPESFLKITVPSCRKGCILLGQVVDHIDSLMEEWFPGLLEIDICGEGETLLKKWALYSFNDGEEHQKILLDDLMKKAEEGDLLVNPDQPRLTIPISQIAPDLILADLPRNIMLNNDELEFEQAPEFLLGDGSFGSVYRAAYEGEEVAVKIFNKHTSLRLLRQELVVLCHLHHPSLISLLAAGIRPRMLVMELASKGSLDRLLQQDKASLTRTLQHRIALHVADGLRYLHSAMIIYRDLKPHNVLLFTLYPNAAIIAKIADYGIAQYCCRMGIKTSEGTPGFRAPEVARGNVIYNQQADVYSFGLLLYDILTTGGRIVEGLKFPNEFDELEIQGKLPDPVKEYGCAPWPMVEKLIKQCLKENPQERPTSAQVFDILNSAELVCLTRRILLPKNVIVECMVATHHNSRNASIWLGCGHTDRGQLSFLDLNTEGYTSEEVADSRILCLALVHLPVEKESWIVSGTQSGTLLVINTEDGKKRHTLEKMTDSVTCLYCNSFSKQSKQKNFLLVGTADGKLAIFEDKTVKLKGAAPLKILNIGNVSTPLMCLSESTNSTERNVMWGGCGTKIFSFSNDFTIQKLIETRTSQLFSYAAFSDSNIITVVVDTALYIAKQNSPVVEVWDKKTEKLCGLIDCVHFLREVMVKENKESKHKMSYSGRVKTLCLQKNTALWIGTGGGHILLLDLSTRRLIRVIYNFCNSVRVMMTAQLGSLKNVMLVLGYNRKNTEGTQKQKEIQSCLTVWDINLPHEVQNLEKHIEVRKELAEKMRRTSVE

Compound | DC50 (LRRK2; 4 h treatment) [nM] | DC50 (LRRK2; 24 h treatment) [nM] | Dmax of LRRK2 degradation in PBMC (LRRK2; 24 h treatment) | T1/2 of LRRK2 degradation in PBMC (LRRK2; time course at 300 nM) [h] | EC50 (Rab10 pThr73; 24 h treatment) [nM] | T1/2 of Rab10 dephosphorylation in PBMC (Rab10 pThr73; time course at 300 nM) [h] | LRRK2 degradation in PBMC (in words) (LRRK2; 4 h treatment) | LRRK2 degradation in PBMC (in words) (LRRK2; 24 h treatment) | LRRK2 degradation in PBMC (in words) (LRRK2; time course at 300 nM) | EC50 (Rab10 pThr73; 4 h treatment) [nM] | LRRK2 Ser935 and Rab10 Thr73 dephosphorylation in PBMC (in words) (Rab10 pThr73; time course at 300 nM)
CNc1nc(Nc2ccc(C(=O)N3CCN(C[C@H]4CC[C@H](CSC(C)(C)[C@H](NC(=O)C5(F)CC5)C(=O)N5C[C@H](O)CC5C(=O)NCc5ccc(-c6scnc6C)cc5)CC4)CC3)cc2OC)ncc1Cl (stereo partly drawn) [XL01126, (2S,4R)-1-((R)-3-((((1R,4R)-4-((4-(4-((5-chloro-4-(methylamino)pyrimidin-2-yl)amino)-3-methoxybenzoyl)piperazin-1-yl)methyl)cyclohexyl)methyl)thio)-2-(1-fluorocyclopropane-1-carboxamido)-3-methylbutanoyl)-4-hydroxy-N-(4-(4-methylthiazol-5-yl)benzyl)pyrrolidine-2-carboxamide] | 72 | 17 | 80-90% | 2.4 | 20 | 0.38 |  |  |  |  | 
CNc1nc(Nc2ccc(C(=O)N3CCN(C[C@H]4CC[C@H](CSC(C)(C)[C@H](NC(=O)C5(F)CC5)C(=O)N5C[C@@H](O)CC5C(=O)NCc5ccc(-c6scnc6C)cc5)CC4)CC3)cc2OC)ncc1Cl (stereo partly drawn) [Cis-XL01126, (2S,4S)-1-((R)-3-((((1r,4R)-4-((4-(4-((5-chloro-4-(methylamino)pyrimidin-2-yl)amino)-3-methoxybenzoyl)piperazin-1-yl)methyl)cyclohexyl)methyl)thio)-2-(1-fluorocyclopropane-1-carboxamido)-3-methylbutanoyl)-4-hydroxy-N-(4-(4-methylthiazol-5-yl)benzyl)pyrrolidine-2-carboxamide] |  |  |  |  | 705 |  | cannot degrade LRRK2 | degraded little LRRK2; also recorded: cannot degrade LRRK2 | cannot degrade LRRK2 | > 3000 | barely inhibits the phosphorylation; also recorded: induced little LRRK2 and Rab10 dephosphorylation
